Results: publication PMC3853718 (Journal of Translational Medicine, 2013)

System: subjects with advanced malignancies
Test: Phase 1 dose escalation: toxicity, safety and tolerability (DLT, MAD, RP2D, AEs)
[1] = 7.11 mg/m^2 (n = 7), All grades

Procedure: Subjects continued on treatment until there was disease progression, unacceptable toxicity, or the subject withdrew consent. The trial employed an accelerated titration design [16] starting at a dose of 0.33 mg/m^2 (one-sixth of the highest nontoxic dose in dogs).
the dose was doubled in sequential subjects until a DLT was observed or a subject experienced grade 2 toxicity [16]. In the case of an observed grade 2 toxicity, a second subject was enrolled at the same dose level. If the second subject also experienced a grade 2 toxicity, 2 additional subjects were accrued at that dose level for a total of 4 subjects. […] Each subject was allocated to only a single dose level of drug. Dose delay or modification was permitted based on laboratory and clinical assessment performed on the day of treatment.
Dose-limiting toxicities were determined during the first cycle for each dose level. A DLT was defined as any grade 3 or 4 hematologic toxicity lasting for at least 1 week, or as any grade 3 or 4 nonhematologic toxicity. […] Normal alkaline phosphatase level (< grade 1) at screening that rose to greater than or equal to grade 3; grade 1 or 2 alkaline phosphatase level at screening that rose to grade 4; grade 1 or 2 aspartate aminotransferase (AST) and/or alanine aminotransferase (ALT) levels at screening that doubled from baseline to become greater than or equal to grade 3; and any other abnormal nonhematology laboratory value greater than or equal to grade 3 that required medical intervention to treat, led to hospitalization, or persisted for at least 1 week were also considered DLTs.
Adverse events were graded based on the National Cancer Institute Common Terminology Criteria for Adverse Events (NCI CTCAE version 3.0) and were coded using the Medical Dictionary for Regulatory Activities (MedDRA version 13.0).

SMILES: CCc1cnn2c(NCc3ccc[n+]([O-])c3)cc(N3CCCC[C@H]3CCO)nc12 [dinaciclib]
- TEAE: Abdominal distension [1]: 1 (14) n (%)
- TEAE: Abdominal pain [1]: 3 (43) n (%)
- TEAE: Anemia [1]: 3 (43) n (%)
- TEAE: Asthenia [1]: 2 (29) n (%)
- TEAE: Back pain [1]: 1 (14) n (%)
- TEAE: Constipation [1]: 1 (14) n (%)
- TEAE: Cough [1]: 0 n (%)
- TEAE: Decreased appetite [1]: 2 (29) n (%)
- TEAE: Dehydration [1]: 1 (14) n (%)
- TEAE: Diarrhea [1]: 1 (14) n (%)
- TEAE: Dizziness [1]: 3 (43) n (%)
- TEAE: Dyspnea [1]: 3 (43) n (%)
- TEAE: Fatigue [1]: 3 (43) n (%)
- TEAE: Flatulence [1]: 2 (29) n (%)
- TEAE: Hyperbilirubinemia [1]: 0 n (%)
- TEAE: Hyperglycemia [1]: 0 n (%)
- TEAE: Hyperuricemia [1]: 0 n (%)
- TEAE: Hypokalemia [1]: 1 (14) n (%)
- TEAE: Hypophosphatemia [1]: 0 n (%)
- TEAE: Increased ALP [1]: 0 n (%)
- TEAE: Increased ALT [1]: 0 n (%)
- TEAE: Increased AST [1]: 0 n (%)
- TEAE: Nausea [1]: 5 (71) n (%)
- TEAE: Neutropenia [1]: 0 n (%)
- TEAE: Peripheral edema [1]: 1 (14) n (%)
- TEAE: Pyrexia [1]: 1 (14) n (%)
- TEAE: Subjects with any AE [1]: 7 (100) n (%)
- TEAE: Urinary tract infection [1]: 2 (29) n (%)
- TEAE: Vomiting [1]: 2 (29) n (%)
- TEAE: Weight decreased [1]: 1 (14) n (%)
- TEAE: Abdominal distension (7.11 mg/m^2 (n = 7), Grade 3–4): 0 n (%)
- TEAE: Abdominal pain (7.11 mg/m^2 (n = 7), Grade 3–4): 1 (14) n (%)
- TEAE: Anemia (7.11 mg/m^2 (n = 7), Grade 3–4): 2 (29) n (%)
- TEAE: Asthenia (7.11 mg/m^2 (n = 7), Grade 3–4): 0 n (%)
- TEAE: Back pain (7.11 mg/m^2 (n = 7), Grade 3–4): 0 n (%)
- TEAE: Constipation (7.11 mg/m^2 (n = 7), Grade 3–4): 0 n (%)
- TEAE: Cough (7.11 mg/m^2 (n = 7), Grade 3–4): 0 n (%)
- TEAE: Decreased appetite (7.11 mg/m^2 (n = 7), Grade 3–4): 0 n (%)
- TEAE: Dehydration (7.11 mg/m^2 (n = 7), Grade 3–4): 0 n (%)
- TEAE: Diarrhea (7.11 mg/m^2 (n = 7), Grade 3–4): 0 n (%)
- TEAE: Dizziness (7.11 mg/m^2 (n = 7), Grade 3–4): 0 n (%)
- TEAE: Dyspnea (7.11 mg/m^2 (n = 7), Grade 3–4): 1 (14) n (%)
- TEAE: Fatigue (7.11 mg/m^2 (n = 7), Grade 3–4): 0 n (%)
- TEAE: Flatulence (7.11 mg/m^2 (n = 7), Grade 3–4): 0 n (%)
- TEAE: Hyperbilirubinemia (7.11 mg/m^2 (n = 7), Grade 3–4): 0 n (%)
- TEAE: Hyperglycemia (7.11 mg/m^2 (n = 7), Grade 3–4): 0 n (%)
- TEAE: Hyperuricemia (7.11 mg/m^2 (n = 7), Grade 3–4): 0 n (%)
- TEAE: Hypokalemia (7.11 mg/m^2 (n = 7), Grade 3–4): 0 n (%)
- TEAE: Hypophosphatemia (7.11 mg/m^2 (n = 7), Grade 3–4): 0 n (%)
- TEAE: Increased ALP (7.11 mg/m^2 (n = 7), Grade 3–4): 0 n (%)
- TEAE: Increased ALT (7.11 mg/m^2 (n = 7), Grade 3–4): 0 n (%)
- TEAE: Increased AST (7.11 mg/m^2 (n = 7), Grade 3–4): 0 n (%)
- TEAE: Nausea (7.11 mg/m^2 (n = 7), Grade 3–4): 0 n (%)
- TEAE: Neutropenia (7.11 mg/m^2 (n = 7), Grade 3–4): 0 n (%)
- TEAE: Peripheral edema (7.11 mg/m^2 (n = 7), Grade 3–4): 0 n (%)
- TEAE: Pyrexia (7.11 mg/m^2 (n = 7), Grade 3–4): 0 n (%)
- TEAE: Subjects with any AE (7.11 mg/m^2 (n = 7), Grade 3–4): 4 (57) n (%)
- TEAE: Urinary tract infection (7.11 mg/m^2 (n = 7), Grade 3–4): 0 n (%)
- TEAE: Vomiting (7.11 mg/m^2 (n = 7), Grade 3–4): 1 (14) n (%)
- TEAE: Weight decreased (7.11 mg/m^2 (n = 7), Grade 3–4): 0 n (%)
- TEAE: Abdominal distension (10 mg/m^2 (n = 3), All grades): 0 n (%)
- TEAE: Abdominal pain (10 mg/m^2 (n = 3), All grades): 1 (33) n (%)
- TEAE: Anemia (10 mg/m^2 (n = 3), All grades): 0 n (%)
- TEAE: Asthenia (10 mg/m^2 (n = 3), All grades): 0 n (%)
- TEAE: Back pain (10 mg/m^2 (n = 3), All grades): 0 n (%)
- TEAE: Constipation (10 mg/m^2 (n = 3), All grades): 2 (67) n (%)
- TEAE: Cough (10 mg/m^2 (n = 3), All grades): 0 n (%)
- TEAE: Decreased appetite (10 mg/m^2 (n = 3), All grades): 0 n (%)
- TEAE: Dehydration (10 mg/m^2 (n = 3), All grades): 0 n (%)
- TEAE: Diarrhea (10 mg/m^2 (n = 3), All grades): 1 (33) n (%)
- TEAE: Dizziness (10 mg/m^2 (n = 3), All grades): 0 n (%)
- TEAE: Dyspnea (10 mg/m^2 (n = 3), All grades): 0 n (%)
- TEAE: Fatigue (10 mg/m^2 (n = 3), All grades): 0 n (%)
- TEAE: Flatulence (10 mg/m^2 (n = 3), All grades): 0 n (%)
- TEAE: Hyperbilirubinemia (10 mg/m^2 (n = 3), All grades): 0 n (%)
- TEAE: Hyperglycemia (10 mg/m^2 (n = 3), All grades): 1 (33) n (%)
- TEAE: Hyperuricemia (10 mg/m^2 (n = 3), All grades): 0 n (%)
- TEAE: Hypokalemia (10 mg/m^2 (n = 3), All grades): 1 (33) n (%)
- TEAE: Hypophosphatemia (10 mg/m^2 (n = 3), All grades): 0 n (%)
- TEAE: Increased ALP (10 mg/m^2 (n = 3), All grades): 0 n (%)
- TEAE: Increased ALT (10 mg/m^2 (n = 3), All grades): 0 n (%)
- TEAE: Increased AST (10 mg/m^2 (n = 3), All grades): 0 n (%)
- TEAE: Nausea (10 mg/m^2 (n = 3), All grades): 1 (33) n (%)
- TEAE: Neutropenia (10 mg/m^2 (n = 3), All grades): 1 (33) n (%)
- TEAE: Peripheral edema (10 mg/m^2 (n = 3), All grades): 0 n (%)
- TEAE: Pyrexia (10 mg/m^2 (n = 3), All grades): 0 n (%)
- TEAE: Subjects with any AE (10 mg/m^2 (n = 3), All grades): 3 (100) n (%)
- TEAE: Urinary tract infection (10 mg/m^2 (n = 3), All grades): 1 (33) n (%)
- TEAE: Vomiting (10 mg/m^2 (n = 3), All grades): 2 (67) n (%)
- TEAE: Weight decreased (10 mg/m^2 (n = 3), All grades): 0 n (%)
- TEAE: Abdominal distension (10 mg/m^2 (n = 3), Grade 3–4): 0 n (%)
- TEAE: Abdominal pain (10 mg/m^2 (n = 3), Grade 3–4): 0 n (%)
- TEAE: Anemia (10 mg/m^2 (n = 3), Grade 3–4): 0 n (%)
- TEAE: Asthenia (10 mg/m^2 (n = 3), Grade 3–4): 0 n (%)
- TEAE: Back pain (10 mg/m^2 (n = 3), Grade 3–4): 0 n (%)
- TEAE: Constipation (10 mg/m^2 (n = 3), Grade 3–4): 0 n (%)
- TEAE: Cough (10 mg/m^2 (n = 3), Grade 3–4): 0 n (%)
- TEAE: Decreased appetite (10 mg/m^2 (n = 3), Grade 3–4): 0 n (%)
- TEAE: Dehydration (10 mg/m^2 (n = 3), Grade 3–4): 0 n (%)
- TEAE: Diarrhea (10 mg/m^2 (n = 3), Grade 3–4): 0 n (%)
- TEAE: Dizziness (10 mg/m^2 (n = 3), Grade 3–4): 0 n (%)
- TEAE: Dyspnea (10 mg/m^2 (n = 3), Grade 3–4): 0 n (%)
- TEAE: Fatigue (10 mg/m^2 (n = 3), Grade 3–4): 0 n (%)
- TEAE: Flatulence (10 mg/m^2 (n = 3), Grade 3–4): 0 n (%)
- TEAE: Hyperbilirubinemia (10 mg/m^2 (n = 3), Grade 3–4): 0 n (%)
